The values below come from ChEMBL document CHEMBL3259747, “Small chemicals with inhibitory effects on PtdIns(3,4,5)P3 binding of Btk PH domain” (Bioorg Med Chem Lett, 2014).

T1 sequence (Q06187 whole entry, the tested form may be a part): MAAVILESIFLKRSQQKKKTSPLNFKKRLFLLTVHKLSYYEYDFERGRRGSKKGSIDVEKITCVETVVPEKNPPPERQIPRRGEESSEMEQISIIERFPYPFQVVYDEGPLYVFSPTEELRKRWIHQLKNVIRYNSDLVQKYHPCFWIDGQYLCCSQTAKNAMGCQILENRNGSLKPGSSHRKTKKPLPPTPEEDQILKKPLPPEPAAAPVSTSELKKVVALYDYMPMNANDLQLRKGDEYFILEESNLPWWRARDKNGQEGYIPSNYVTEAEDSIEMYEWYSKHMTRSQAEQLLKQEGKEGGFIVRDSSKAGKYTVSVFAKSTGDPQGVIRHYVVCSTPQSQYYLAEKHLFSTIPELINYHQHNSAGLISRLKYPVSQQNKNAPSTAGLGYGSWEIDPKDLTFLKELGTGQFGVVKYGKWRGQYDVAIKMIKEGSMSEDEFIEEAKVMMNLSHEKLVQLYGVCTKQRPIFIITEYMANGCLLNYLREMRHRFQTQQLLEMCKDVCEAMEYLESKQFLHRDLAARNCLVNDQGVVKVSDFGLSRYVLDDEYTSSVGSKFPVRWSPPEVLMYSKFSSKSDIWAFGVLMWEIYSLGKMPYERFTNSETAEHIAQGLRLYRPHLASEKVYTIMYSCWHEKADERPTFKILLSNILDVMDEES

One assay has as its target T1, Tyrosine-protein kinase BTK (Homo sapiens, UniProt Q06187). In words: Inhibition of PtdIns(3,4,5)P3 binding to Btk PH domain (unknown origin) expressed in Escherichia coli BL21(DE3) RIL cells at 100 uM by surface plasmon resonance assay relative to untreated control.
`CCOP(=O)(O)c1cc(C(=O)O)[nH]n1` showed an inhibition of 37%.

In turn, `O=C1[C@@H]2C[C@@H]3O[C@]2(C(O)C3O)[C@@H](P(=O)(O)O)N1Cc1ccccc1` (stereo partly drawn) returned an inhibition of 13%. `CCOP(=O)(O)C1=NNC(C)(C(=O)O)C1` (stereo not drawn) gave an inhibition of 41%. Same read-out and setting: the value for `O=C(O)c1cc(P(=O)(O)O)n[nH]1` was 95%. `CC1(C(=O)O)CC([PH](=O)O)=NN1` (stereo not drawn) showed an inhibition of 71%.

As for `CC1(C(=O)O)NN=C(P(=O)(O)O)C1C(=O)O` (stereo not drawn), the inhibition came to 64%. The compound `CCOP(=O)(O)c1n[nH]c(C(=O)O)c1C(=O)O` showed an inhibition of 34%. The compound `COP(=O)(O)C1=NNC(C)(C(=O)O)C1` (stereo not drawn) displayed an inhibition of 52%. With `O=C1[C@@H]2C[C@@H]3O[C@]2(C(O)C3OP(=O)(O)O)[C@@H](P(=O)(O)O)N1Cc1ccccc1` (stereo partly drawn), the inhibition amounted to 11%. On the same count and under the same terms, for `O=C1[C@@H]2C[C@H]3CC[C@@]2(O3)[C@@H](P(=O)(O)O)N1Cc1ccccc1` the value was 38%; for `COP(=O)(O)c1cc(C(=O)O)[nH]n1`, 48%.

For the next assay, the target named is T1, Tyrosine-protein kinase BTK. Briefly: Inhibition of PtdIns(3,4,5)P3 binding to Btk PH domain (unknown origin) expressed in Escherichia coli BL21(DE3) RIL cells by surface plasmon resonance assay relative to untreated control.
As to `O=C(O)c1cc(P(=O)(O)O)n[nH]1`, the IC50 is 17 µM. That is a double-digit micromolar value.

For a further assay, the target named is T2, Epsin-1 (Homo sapiens, UniProt Q9Y6I3).
T2 sequence (Q9Y6I3 whole entry): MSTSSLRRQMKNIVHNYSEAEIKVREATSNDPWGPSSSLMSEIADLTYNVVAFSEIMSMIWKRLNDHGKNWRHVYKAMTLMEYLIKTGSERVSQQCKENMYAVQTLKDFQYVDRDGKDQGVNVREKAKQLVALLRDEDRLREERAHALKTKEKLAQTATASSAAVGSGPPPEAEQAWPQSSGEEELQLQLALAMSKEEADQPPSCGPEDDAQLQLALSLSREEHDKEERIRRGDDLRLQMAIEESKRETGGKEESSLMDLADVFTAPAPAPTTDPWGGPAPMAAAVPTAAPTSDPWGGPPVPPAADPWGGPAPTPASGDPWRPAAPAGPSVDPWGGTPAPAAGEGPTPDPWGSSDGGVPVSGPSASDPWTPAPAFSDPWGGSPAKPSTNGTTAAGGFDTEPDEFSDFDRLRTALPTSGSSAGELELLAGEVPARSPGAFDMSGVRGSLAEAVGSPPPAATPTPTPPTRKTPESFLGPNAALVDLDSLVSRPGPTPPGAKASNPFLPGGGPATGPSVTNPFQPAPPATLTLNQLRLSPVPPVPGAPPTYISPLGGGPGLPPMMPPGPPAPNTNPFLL
Briefly: Inhibition of PtdIns(4,5)P2 binding to Epsin1 ENTH domain (unknown origin).
Consider `O=C(O)c1cc(P(=O)(O)O)n[nH]1`, for which the IC50 came out at 46 µM.
